What follows are compounds tested against T1, Syk kinase (Homo sapiens, UniProt P43405) (assay: Syk kinase inhibition, Caliper LabChip off-chip mobility-shift kinase assay). Details: Caliper LabChip assay; read-out: Syk Enzyme IC50.
T1 construct: purchased
Assay type: biochemical
Method in brief: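 Purified Syk pre-incubated 15 min with compound in 100 mM HEPES pH 7.5, 1 mM DTT, 10 mM MgCl2 or MnCl2, 0.002% Brij-35, then 1.5 μM fluorescein peptide and ATP at apparent KM added; 1–1.5 h at room temperature, 4% DMSO, EDTA stop. Microfluidic mobility-shift product/substrate conversion gave % inhibition; IC50 from 12-point series (10–0.00003 μM) by 4-parameter fit.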

| SMILES | IC50 [nM] |
| --- | --- |
| [2H][C@]1(O)CC[C@H](Nc2nc(Nc3cc(C)ccn3)cc3ccn(CC)c(=O)c23)CC1 [compound 990] | 20 |
| O=c1[nH]ccc2cc(Nc3cnccn3)nc(NC3CCCC3)c12 [compound 766] | 7 |
| CCn1ccc2cc(Nc3cnccn3)nc(N[C@H]3CC[C@H](CO)C3)c2c1=O [compound 827] | 12 |
| CCn1ccc2cc(Nc3cc(C)ccn3)nc(N[C@@H]3CCC[C@@H]3CO)c2c1=O [compound 941] | 226 |
| O=c1c2c(N[C@H]3CC[C@@H](O)CC3)nc(Nc3cnccn3)cc2ccn1CCF [compound 999] | 10 |
| COCCn1ccc2cc(Nc3cnccn3)nc(N[C@H]3CC[C@@H](O)CC3)c2c1=O [compound 1005] | 17 |
| [2H]C([2H])([2H])n1ccc2cc(Nc3cc(Cl)ccn3)nc(NC[C@@H]3CCCO3)c2c1=O [compound 1052] | 236 |
| CC(C)(C)Nc1nc(Nc2cc(-c3ccn[nH]3)ccn2)cc2ccn(CCO)c(=O)c12 [compound 690, 6-(4-(1H-pyrazol-5-yl)pyridin-2-ylamino)-8-(tert-butylamino)-2-(2-hydroxyethyl)-2,7-naphthyridin-1(2H)-one] | 67 |
| CC(C)(O)Cc1ccnc(Nc2cc3ccn(CCO)c(=O)c3c(NC(C)(C)C)n2)c1 [compound 880] | 74 |
| CC1(Cn2ccc3cc(-c4cnc(N)nc4)nc(NC4COC4)c3c2=O)COC1 [compound 773, 6-(2-Aminopyrimidin-5-yl)-2-((3-methyloxetan-3-yl)methyl)-8-(oxetan-3-ylamino)-2,7-naphthyridin-1(2H)-one] | 67 |
| Cc1[nH]ncc1-c1ccnc(Nc2cc3ccn(CCO)c(=O)c3c(NC(C)(C)C)n2)c1 [compound 855] | 244 |
| CCn1ccc2cc(Nc3cnccn3)nc(NCCC(F)(F)F)c2c1=O [compound 781] | 299 |
| Cc1ccnc(Nc2cc3ccn(CCO)c(=O)c3c(NC3(C)CCC3)n2)c1 [compound 599] | 286 |
| CC(C)(C)Nc1nc(Nc2c[n+]([O-])ccn2)cc2ccn(C[C@H](O)CO)c(=O)c12 [compound 674] | 7 |
| CCn1ccc2cc(Nc3cc(C)ccn3)nc(N[C@H](CO)C(C)C)c2c1=O [compound 1041] | 158 |
| Cn1ccc2cc(Nc3nccc(O)n3)nc(NC3CCC3)c2c1=O [compound 800] | 9 |
| CCn1ccc2cc(Nc3cc(C)ccn3)nc(N[C@@H]3CC[C@H](CO)C3)c2c1=O [compound 794] | 94 |
| CC(C)(C)Nc1nc(-c2cnc(N)nc2)cc2ccn(CCO)c(=O)c12 [compound 899] | 17 |
| [2H]C([2H])([2H])n1ccc2cc(Nc3cnccn3)nc(NC[C@@H]3CCCO3)c2c1=O [compound 1048] | 164 |
| CC(C)(C)Nc1nc(Nc2cc(OCCO)ccn2)cc2ccn(CCO)c(=O)c12 [compound 866] | 11 |
| CC(C)(C)Nc1nc(Nc2cc(-c3ccc4cn[nH]c4c3)ccn2)cc2ccn(CCO)c(=O)c12 [compound 850] | 559 |
| Cc1ccnc(Nc2cc3ccn(CCO)c(=O)c3c(N)n2)c1 [compound 813] | 1050 |
| CC(C)(C)Nc1nc(Nc2cnccn2)cc2ccn(C[C@@H](O)c3ccccc3)c(=O)c12 [compound 676] | 120 |
| CCn1ccc2cc(Nc3cnccn3)nc(N[C@@H]3CC[C@@H](CO)C3)c2c1=O [compound 791] | 58 |
| CC(C)(C)Nc1nc(Nc2cc(C3=CCCCC3)ncn2)cc2ccn(CCO)c(=O)c12 [compound 623] | 612 |
| CCn1ccc2cc(Nc3cc(C)ccn3)nc(NC3CCCC(O)C3)c2c1=O (stereo not shown) [compound 972] | 59 |
| CCn1ccc2cc(-c3cnc(N)nc3)nc(NC3(C)CCC3)c2c1=O [compound 906] | 29 |
| [2H][C@]1(O)CC[C@@H](Nc2nc(Nc3cnccn3)cc3ccn(CC)c(=O)c23)CC1 [compound 992] | 12 |

Same assay, conditions: read-out: Syk Enzyme IC50

| SMILES | IC50 [nM] |
| --- | --- |
| Cn1ccc2cc(Nc3ccccn3)nc(N)c2c1=O [compound 572] | 3270 |
| C[C@H](CO)Nc1nc(Nc2ccccn2)cc2cc[nH]c(=O)c12 [compound 299] | 68 |
| O=c1[nH]ccc2cc(CCCO)nc(Nc3ccc(N4CCOCC4)cc3)c12 [compound 247] | 45 |
| Cc1ccc(-c2cc3cc[nH]c(=O)c3c(Nc3ccc(C4CNC4)cc3)n2)cn1 [compound 131] | 111 |
| Cn1ccc2cc(Nc3cnccn3)nc(NC3CCC3)c2c1=O [compound 460] | 16 |
| CCN1CCN(CCc2ccc(Nc3nc(Nc4ccc(F)cn4)cc4cc[nH]c(=O)c34)cc2)CC1 [compound 580] | 163 |
| [2H]C([2H])([2H])n1ccc2cc(Nc3cc(Cl)ccn3)nc(N[C@@H](C)CO)c2c1=O [compound 403] | 60.4 |
| CCN1CCN(CCc2ccc(Nc3nc(Nc4cc(C(F)(F)F)ccn4)cc4cc[nH]c(=O)c34)cc2)CC1 [compound 520] | 183 |
| CCn1ccc2cc(Nc3cc(C)ccn3)nc(N[C@H]3CCC[C@@H]3O)c2c1=O [compound 422] | 86.1 |
| Nc1ncc(-c2cc3cc[nH]c(=O)c3c(NC3CCC3)n2)cn1 [compound 453] | 162 |
| COCCN1CCC(c2cc3cc[nH]c(=O)c3c(Nc3ccc(N4CCOCC4)cc3)n2)CC1 [compound 9] | 299 |
| Cc1ccnc(Nc2cc3cc[nH]c(=O)c3c(NC3CCC3)n2)c1 [compound 485] | 45 |
| CCCc1cc2cc[nH]c(=O)c2c(Nc2ccc(C3CCN(C4CC4)CC3)c(C)c2)n1 [compound 230] | 556 |
| COc1ncc(-c2cc3cc[nH]c(=O)c3c(Nc3ccc(CCN4CCNC(=O)C4)cc3)n2)cn1 [compound 151] | 201 |
| CCn1ccc2cc(Nc3cc(C)ccn3)nc(N[C@H]3CCCC[C@H]3O)c2c1=O (racemic) [compound 408] | 324 |
| CC(C)Nc1nc(Nc2cc(C(=O)O)ccn2)cc2cc[nH]c(=O)c12 [compound 587] | 226 |
| CCN1CCN(CCc2ccc(Nc3nc(Nc4ccc(Cl)cn4)cc4cc[nH]c(=O)c34)cc2)CC1 [compound 536] | 398 |
| COc1cncc(-c2cc3cc[nH]c(=O)c3c(Nc3ccc(N4CC5(CNC5)C4)cc3)n2)n1 [compound 5] | 316 |
| Cc1cc(-c2cc3cc[nH]c(=O)c3c(Nc3ccc([C@H]4CC[C@H](N5CCOCC5)CC4)cc3)n2)cnc1N [compound 100] | 193 |
| COCCN1CCN(c2n[nH]c3cc(Nc4nc(-c5ccc(C)nc5)cc5cc[nH]c(=O)c45)ccc23)CC1 [compound 215] | 67 |
| Cc1ccc(Nc2cc3cc[nH]c(=O)c3c(Nc3ccc(N4CCO[C@H](C)C4)c(C)c3)n2)nc1 [compound 582] | 2220 |
| CCn1ccc2cc(Nc3cc(Cl)ccn3)nc(N[C@H]3CC[C@@H](O)CC3)c2c1=O [compound 383] | 26 |
| CC(C)Nc1nc(Nc2ccc(Cl)cn2)cc2cc[nH]c(=O)c12 [compound 560] | 611 |

| SMILES | IC50 [nM] |
| --- | --- |
| COc1cncc(-c2cc3cc[nH]c(=O)c3c(Nc3ccc(C4CCN(CCC(C)(C)C)CC4)c(C)c3)n2)n1 [compound 61] | 158 |
| COCCn1ccc2cc(Nc3cc(C)ccn3)nc(NC(C)C)c2c1=O [compound 314] | 237 |
| COCC(=O)N1CCC(c2ccc(Nc3nc(-c4cncc(OC)n4)cc4cc[nH]c(=O)c34)cc2C)CC1 [compound 49] | 75 |
| CCN1CCN(c2n[nH]c3cc(Nc4nc(-c5cncnc5)cc5cc[nH]c(=O)c45)ccc23)CC1 [compound 199] | 20 |
| COCCN1CCN(c2n[nH]c3cc(Nc4nc(-c5cncnc5)cc5cc[nH]c(=O)c45)ccc23)CC1 [compound 214] | 17 |
| COc1cncc(-c2cc3cc[nH]c(=O)c3c(Nc3ccc(C4CCN(CCC(=O)O)CC4)c(C)c3)n2)n1 [compound 163] | 7 |
| Cc1ncc(-c2cc3cc[nH]c(=O)c3c(Nc3ccc([C@H]4CC[C@H](N5CCOCC5)CC4)cc3)n2)cn1 [compound 1] | 49 |
| CC[C@H](C)Nc1nc(-c2cnc(N)nc2)cc2cc[nH]c(=O)c12 [compound 187] | 301 |
| O=c1[nH]ccc2cc(Nc3ccc(F)cn3)nc(Nc3ccc(N4CCOCC4)cc3)c12 [compound 576] | 4870 |
| COc1cncc(-c2cc3cc[nH]c(=O)c3c(Nc3ccc(C4CCN(C5CS(=O)(=O)C5)CC4)c(C)c3)n2)n1 [compound 42] | 26 |
| Cc1cc(Nc2nc(-c3cncc(C(=O)N4CCOCC4)c3)cc3cc[nH]c(=O)c23)ccc1C1CCN(C2CC2)CC1 [compound 208] | 112 |
| Cc1ccnc(Nc2cc3cc[nH]c(=O)c3c(N3CCCC3)n2)c1 [compound 269] | 554 |
| Cc1cc(Nc2nc(-c3cncc(NC4CC4)n3)cc3cc[nH]c(=O)c23)ccc1C1CCN(CCC#N)CC1 [compound 68] | 89 |
| CC(C)(C)Nc1nc(-c2cnc(N)nc2)cc2cc[nH]c(=O)c12 [compound 455] | 59 |
| Cc1ccnc(Nc2cc3cc[nH]c(=O)c3c(NC(C)CO)n2)c1 (stereo not shown) [compound 265] | 18 |
| Cc1ccnc(Nc2cc3cc[nH]c(=O)c3c(N[C@@H](C)CO)n2)c1 [compound 294] | 101 |
| Cc1ccnc(Nc2cc3cc[nH]c(=O)c3c(N[C@H]3CCC[C@H]3O)n2)c1 (racemic) [compound 271] | 26 |
| COCCN1CCC(c2ccc(Nc3nc(-c4ccc(C)nc4)cc4cc[nH]c(=O)c34)cc2C)CC1 [compound 47] | 12 |
| O=c1[nH]ccc2cc(C3=CCOCC3)nc(Nc3ccc(N4CCOCC4)cc3)c12 [compound 86] | 96 |
| CCC(C)Nc1nc(Nc2cc(C)ccn2)cc2cc[nH]c(=O)c12 (stereo not shown) [compound 262] | 201 |
| CCC(C)Nc1nc(Nc2ccc(F)cn2)cc2cc[nH]c(=O)c12 (stereo not shown) [compound 264] | 423 |
| CCn1ccc2cc(Nc3cnccn3)nc(N[C@H]3CCCC[C@H]3O)c2c1=O (racemic) [compound 409] | 128 |
